Test results: patent US7741348B2, “Bisheterocycle tandem compounds useful as antiviral agents, the uses thereof and the compositions comprising such compounds” (Shanghai Institute of Materia Medica, Chinese Academy of …, priority 2005, dated 2010)
Converted amounts (≈) assume the structure as drawn. Where two headings read alike, the source gives them in different places.

Legend:
Format in all cases: cell-based
[1] = Cytotoxicity to HepG2.2.15 cells (MTT method); details: human, HepG2.2.15 cells (HBV-transgenic human hepatoma cells), 50% death concentration, eighth day
Description: (§1) Hepatitis B virus (HBV) transgenic human hepatoma carcinoma cell, HepG2.2.15 cell line, can secrete hepatitis B virus particles (containing antigen and DNA) into supernatant when being cultured.
(§2) Under action of antiviral drugs, the contents of HBsAg, HBeAg and viral DNA secreted from cells into the supernatant were detected and are compared with the contents of control groups without drugs, so that the antiviral activity of the compounds of the present invention can be measured as well as the cytotoxic effect of compounds of the present invention. The value concentration of the compounds of the present invention which caused 50% of cells dead and was measured with MTT method was CC50; and the value concentration of the compounds of the present invention which inhibited the secretion of HBsAg and HBeAg detected by ELISA method and inhibited 50% of viral DNA replication detected by fluorescent quantification PCR method was IC50.
(§3) HepG2.2.15 cells were inoculated on a 96-well plate, and the compounds of the present invention were added next day. The medium and the compound solutions of the same concentration were renewed periodically. The culture supernatants were collected on the eighth day to be detected. MTT was added to the cells on the 96-well plate, and MTT dissolving liquid was added after 4 hours to be reacted overnight. OD570 was measured next day on microplate reader. And the cytotoxicity of the compounds of the present invention to the HepG2.2.15 cells, the effect of the compounds of the present invention on the growth of the cells, and the concentration of the compound of the present invention (CC50) causing 50% of the cells dead were estimated according to the OD values.

[2] = test system: hepatitis B virus (HBV); test: HBV-DNA replication in HepG2.2.15 culture supernatant (fluorescent quantification PCR); details: for IC50: Hepatitis B virus; for DNA replication IC89: ICX: concentration with 89% inhibition of HBV-DNA replication; for DNA replication IC12: ICX: concentration with 12% inhibition of HBV-DNA replication
Description: as §1, §2, §3
A suitable amount of culture supernatant was added into a same volume of virus extract solution, and was boiled after mixed uniformly, then centrifuged at 10000 rpm for 5 min under room temperature. A suitable amount of supernatant was collected for PCR amplification. Five HBV-DNA standard samples were used to set a standard curve. According to the obtained viral DNA replication value, the inhibition rates of HBV-DNA replication of the compound of the present invention at different concentrations were calculated, and then the half inhibition rates of the compounds were calculated to obtain IC50. For the samples that can not be calculated for IC50 value, they can be represented by ICX and given the corresponding concentration values.

[3] = test system: influenza A virus; test: Anti influenza A virus activity, cytopathic effect (CPE) in MDCK cells
Description: (§4) 4. Screening of the samples for the anti-influenza virus A and B activity: MDCK (canine kidney) cells were used as the virus host to test the inhibition effect of the compounds of the present invention on the cytopathic effect (CPE) of the cells caused by the virus.

[4] = test system: MDCK (canine kidney) cells; test: 50% toxicity concentration in the anti-influenza screen (MDCK cells); details: 50% toxity concentration, Table 3-2 (influenza screen, MDCK cells)
Description: as §4

[5] = HepG2.2.15 supernatant, eighth day, fluorescent quantification PCR, read-out: DNA replication IC50
[6] = HepG2.2.15, read-out: DNA replication IC50

| Structure (SMILES) | CC50 [1] | IC50 [2, 5] | also measured |
| --- | --- | --- | --- |
| CC(C)Cc1cnc(-c2nccs2)o1 [Compound C208] | > 100 µM | 35.8 µM |  |
| c1ccc(-c2cnc(-c3cccs3)[nH]2)cc1 [Compound C226] | 53.2 µM | 2.3 µM |  |
| c1ccc(-c2cnc(-c3cccs3)o2)cc1 [Compound C227] | > 100 µM | 1.4 µM |  |
| c1ccc(-c2cnc(-c3cccs3)s2)cc1 [Compound C243] | 84.5 µM | 0.41 µM |  |
| CCOC(=O)c1nc(-c2cccs2)[nH]c1C1CC1 [Compound C262] | 34.4 µM | 4.3 µM |  |
| CCOC(=O)c1nc(-c2nccs2)[nH]c1C1CC1 [Compound C263-1] | > 100 µM | 3.7 µM |  |
| CC(C)Cc1sc(-c2nccs2)nc1C(N)=O [Compound C267] |  |  | DNA replication IC89 ([2]; IC50 not calculable): IC89 = 33 uM |
| CCOC(=O)c1nc(-c2nccs2)[nH]c1C1CCC1 [Compound C277] | > 100 µM | 3.1 µM |  |
| CCCCc1[nH]c(-c2nccs2)nc1C(=O)OCC [Compound C279-1] | 94.7 µM |  | DNA replication IC40 ([2]; ICX: concentration with 40% inhibition of HBV-DNA replication, IC50 not calculable): IC40 = 12.4 uM |
| CCCCc1oc(-c2cccs2)nc1C(=O)OCC [Compound C279-2] | 71.8 µM | 51.9 µM |  |
| CCOC(=O)c1nc(-c2cccs2)oc1CC(C)C [Compound C279-3] | > 100 µM |  |  |
| CCOC(=O)c1nc(-c2nccs2)oc1CC(C)C [Compound C280-1] | > 100 µM |  |  |
| CCCCc1oc(-c2nccs2)nc1C(=O)OCC [Compound C280-2] | > 100 µM |  | DNA replication IC26 ([2]; ICX: concentration with 26% inhibition of HBV-DNA replication, IC50 not calculable): IC26 = 0.41 uM |
| CNC(=O)c1nc(-c2nccs2)sc1CC(C)C [Compound C281] |  |  | DNA replication IC94 ([2]; ICX: concentration with 94% inhibition of HBV-DNA replication, IC50 not calculable): IC94 = 33 uM |
| CCOC(=O)c1nc(-c2nccs2)[nH]c1C1CCCC1 [Compound C291] | > 100 µM | 5.5 µM |  |
| CCOC(=O)c1nc(-c2ccc(C)s2)[nH]c1CC(C)C [Compound C292] | 139 µM | 4.65 µM |  |
| CCOC(=O)c1nc(-c2ccc(C)s2)oc1CC(C)C [Compound C293] | 80 µM | 126 µM |  |
| CCCCc1sc(-c2cccs2)nc1C(=O)OCC [Compound C295-1] | 50 µM | 11.7 µM |  |
| CC(C)Cc1sc(-c2nccs2)nc1C(=O)N(C)C [Compound C295-3] |  |  | DNA replication IC12 ([2]; IC50 not calculable): IC12 = 1.23 uM |
| CCCCc1sc(-c2nccs2)nc1C(=O)OCC [Compound C296-2] | > 100 µM |  | DNA replication IC12 ([2]; IC50 not calculable): IC12 = 0.41 uM |
| CCOC(=O)c1nc(-c2cscn2)sc1CC(C)C [Compound C296-3] | 116 µM | 0.14 µM |  |
| CCOC(=O)c1nc(-c2cccs2)[nH]c1C1CCCCC1 [Compound C304] | > 100 µM | 4.5 µM |  |
| CCOC(=O)c1nc(-c2cccs2)oc1C1CCCCC1 [Compound C305-1] | > 100 µM | 2.6 µM |  |
| CCOC(=O)c1nc(-c2nccs2)[nH]c1C1CCCCC1 [Compound C305-2] | > 100 µM | 4.1 µM |  |
| CCOC(=O)c1nc(-c2nccs2)oc1C1CCCCC1 [Compound C306] | > 100 µM | 0.8 µM |  |

| Structure (SMILES) | CC50 [1] | IC50 [2, 5] | also measured |
| --- | --- | --- | --- |
| CCOC(=O)c1nc(-c2ccc(CC)s2)oc1CC(C)C [Compound C307] | 80 µM | 22.5 µM |  |
| CCOC(=O)c1nc(-c2ccc(C)s2)sc1CC(C)C [Compound C309] | > 100 µM |  | DNA replication IC14.2 ([2]; ICX: concentration with 14.2% inhibition of HBV-DNA replication, IC50 not calculable): IC14.2 = 0.39 uM |
| CCOC(=O)c1nc(-c2ncc(C)s2)sc1CC(C)C [Compound C310] | > 100 µM | 0.14 µM |  |
| CCOC(=O)c1nc(-c2cc3ccccc3[nH]2)[nH]c1CC(C)C [Compound C311-2] | 3.5 µM | 0.07 µM |  |
| CCCCc1oc(-c2ccc(CCC)s2)nc1C(=O)OCC [Compound C321-1] | 80 µM | 5.86 µM |  |
| CCOC(=O)c1nc(-c2cccs2)sc1C1CCCCC1 [Compound C321-2] | 28.2 µM |  | IC50 [2, 6]: 1.67 µM |
| CCCc1ccc(-c2nc(C(=O)OCC)c(CC(C)C)o2)s1 [Compound C321-3] | 80 µM |  | DNA replication IC27 ([2]; ICX: concentration with 27% inhibition of HBV-DNA replication, IC50 not calculable): IC27 = 1.23 uM |
| CCOC(=O)c1nc(-c2nc(CC)cs2)sc1CC(C)C [Compound C324-2] | > 100 µM | 0.14 µM |  |
| CCOC(=O)c1nc(-c2cccs2)[nH]c1/C=C/c1ccccc1 [Compound C324] | 61 µM |  |  |
| CCOC(=O)c1nc(-c2cc3ccccc3[nH]2)sc1CC(C)C [Compound C328-2] | 21.7 µM |  |  |
| CCOC(=O)c1nc(-c2cc3ccccc3s2)[nH]c1CC(C)C [Compound C328] | > 7.5 µM | 0.19 µM |  |
| CCOC(=O)c1nc(-c2cc3ccccc3s2)oc1CC(C)C [Compound C329] | > 100 µM |  | DNA replication IC41.8 ([2]; ICX: concentration with 41.8% inhibition of HBV-DNA replication, IC50 not calculable): IC41.8 = 4 uM |
| CCCc1ccc(-c2nc(C(=O)OCC)c(CC(C)C)s2)s1 [Compound C337] | 60 µM |  |  |
| CC(C)Cc1sc(-c2nccs2)nc1C(=O)Nc1ccccc1 [Compound C343] |  |  | DNA replication IC19 ([2]; ICX: concentration with 19% inhibition of HBV-DNA replication, IC50 not calculable): IC19 = 1.23 uM |
| CCOC(=O)c1nc(-c2cc3ccccc3s2)sc1CC(C)C [Compound C345] | > 88.1 µM |  | IC50 [2, 6]: 1.32 µM |
| CCOc1cnc(-c2oc(-c3cccs3)nc2C(=O)c2ccccc2)o1 [Compound C352] | > 33.3 µM | 8.3 µM |  |
| CC(C)Cc1sc(-c2nccs2)nc1C(=O)NCc1ccccc1 [Compound C357] | 80 µM |  | DNA replication IC89 ([2]; IC50 not calculable): IC89 = 33 uM |
| CCOC(=O)c1nc(-c2nc3cc(OC)ccc3s2)sc1CC(C)C [Compound C376] | 127 µM | 23 µM |  |
| NC(=O)c1ncn([C@@H]2O[C@H](CO)[C@@H](O)[C@H]2O)n1 [Ribavirin, reference compound] |  |  | IC50 [3]: 3.73 µg/mL (≈ 15.3 µM) |
| Cc1oc(-c2csc([C@@H](NC(=O)CC3=CCCC3)C(C)C)n2)nc1C(=O)O [Wang389.47] |  |  | TC50 [4]: 480.75 µg/mL (≈ 1230 µM); IC50 [3]: 29 µg/mL (≈ 74.5 µM) |
| COC(=O)c1nc(-c2csc([C@@H](NC(=O)C3CCCC3)C(C)C)n2)oc1C [Wang391.49-1] |  |  | TC50 [4]: 250 µg/mL (≈ 639 µM); IC50 [3]: 0.56 µg/mL (≈ 1.43 µM) |
| COC(=O)c1nc(-c2csc([C@@H](NC(=O)CC=C(C)C)C(C)C)n2)oc1C [Wang391.49-2] |  |  | TC50 [4]: >1000 µg/mL; IC50 [3]: > 192 µg/mL |
| COc1ccccc1C(=O)N[C@H](c1nc(-c2nc(C(=O)O)c(C)o2)cs1)C(C)C [Wang415.46] |  |  | TC50 [4]: 333.33 µg/mL (≈ 802 µM); IC50 [3]: 29 µg/mL (≈ 69.8 µM) |
| COC(=O)c1nc(-c2csc([C@@H](NC(=O)c3ccccc3OC)C(C)C)n2)oc1C [Wang429.49] |  |  | TC50 [4]: 333.33 µg/mL (≈ 776 µM); IC50 [3]: 47.7 µg/mL (≈ 111 µM) |
| CCC(=O)N[C@H](c1nc(-c2nc(C(=O)N[C@@H](C)c3nc(C(=O)OC)co3)c(C)o2)cs1)C(C)C [Wang489.55] |  |  | TC50 [4]: 577.35 µg/mL (≈ 1180 µM); IC50 [3]: 160 µg/mL (≈ 327 µM) |
